Measured values taken from patent publication US20040028610A1, “Method of increasing the sensitivity of mammography” (priority 2003, published 2004).
“Also recorded” adds a separate entry of the source.

Columns and labels:
breast tissue [1] = experiment: Treatment with parenteral (intramuscular) androgen preparation, then mammography and manual breast examination; format: in vivo, human (pre and postmenopausal women)
Description: Patients in need of breast cancer examinations were provided parenteral administration of androgen preparations in the clinical setting. Lakeview Pharmacy, Inc. prepared the compounded equivalent of Depo-Testosterone (Testosterone Cypionate 200 mg/ml dissolved in Cottonseed Oil and preserved with Benzyl Benzoate USP and Benzyl Alcohol NF.) in a multi-use vial. The androgen preparation was administered in a dose of about 150 mg to about 200 mg per month for the treatment of fibrocystic breast disorders. The treating physician delivered the preparation intramuscularly in a single dose. The preparation was given to approximately 40 pre and postmenopausal women ranging in age from 24 to 80 years of age. The patients were then scheduled for a mammogram at least one month but not more than three months after commencement of administration of the androgen preparation.
(§1) In advance of the mammographic procedure, patients were instructed to not wear deodorant (the crystals cause difficulty in reading the films). […] A Picker Digital Mammogram was used to take the frontal and side views of the breast tissue bilaterally. Minimums of two views were taken per breast. The films were then interpreted by a radiologist with experience in interpreting mammograms and graded with the BI-RADS system.

breast tissue [2] = experiment: Treatment with topical androgen preparation (PCA cream), then mammography and manual breast examination; format: in vivo, human (pre and postmenopausal women)
Text: as §1
Patients in need of breast cancer examinations were provided topical formulations for administration of androgen preparations in the outpatient setting. Lakeview Pharmacy, Inc made up the compounded equivalent of Depo-Testosterone (150 mg of testosterone cypionate mixed in PCA cream) with an application of 6 inches squeezed from a multi-use tube of the mixture and rubbed into the skin on a daily basis. The androgen preparation was administered as a total monthly dose from about 150 mg to about 200 mg. The formulation was given to approximately 15 pre and postmenopausal women ranging in age from 24 to 80 years of age. The patient was then scheduled for a mammogram at least one month but not more than two months after administration of the androgen preparation. Mammography was performed as described in Example 1.

breast tissue [3] = experiment: Administration of testosterone to female patients with dense or fibrous breasts (summary statements); format: in vivo, human (pre- and post-menopausal women)
[4] = patients presenting with dense breast tissue and attendant mastalgia
[5] = pre- and post-menopausal women with fibrous or dense breasts

| Structure (SMILES) | alteration of the menstrual cycle by the medication (breast tissue [1]) | radiographic breast density on mammographic images (breast tissue [1]; about 150 mg to about 200 mg per month, approximately 40 women, seen after only one monthly treatment, films graded with BI-RADS) | breast palpability by manual examination (breast tissue [1]; about 150 mg to about 200 mg per month, seen after only one monthly treatment) | mammographic changes in density, patients affected (breast tissue [1]; most significant in those patients with dense breasts) | lesions requiring 6-month follow up, at second mammogram (breast tissue [1]; sustained treatment for 6 or more months, some lesions) | effects on radiographic and palpable density after two months of treatment (versus one month) (breast tissue [1]; two months of androgen treatment prior to examination) | alteration of the menstrual cycle by the medication (breast tissue [2]; topical) | radiographic breast density on mammographic images (breast tissue [2]; topical PCA cream daily, total monthly dose about 150 mg to about 200 mg, approximately 15 women, seen after only one monthly treatment) | breast palpability by manual examination (breast tissue [2]; topical PCA cream daily, total monthly dose about 150 mg to about 200 mg, seen after only one monthly treatment) | mammographic changes in density, patients affected (breast tissue [2]; topical, most significant in those patients with dense breasts) | lesions requiring 6-month follow up, at second mammogram (breast tissue [2]; topical, sustained treatment for 6 or more months, some lesions) | effects on radiographic and palpable density after two months of treatment (versus one month) (breast tissue [2]; topical, two months of androgen treatment prior to examination) | visualization of breast tissue in mammographic procedures (breast tissue [3]; female patients with dense breast tissue) | mammographic opacity and overall density (breast tissue [3]; [4]) | palpability of breast tissue during manual examination (breast tissue [3]; [4]) | number or size of fibrous (fibrocystic) breast lesions (breast tissue [3]; [5]) | palpable breast density (breast tissue [3]; [5]) | radiographic density (breast tissue [3]; [5]) | symptoms secondary to cyclic causes (sense of breast fullness or heaviness) (breast tissue [3]; [5]) |
| --- | --- | --- | --- | --- | --- | --- | --- | --- | --- | --- | --- | --- | --- | --- | --- | --- | --- | --- | --- |
| C[C@]12CC[C@H]3[C@@H](CCC4=CC(=O)CC[C@@]43C)[C@@H]1CC[C@@H]2OC(=O)CCC1CCCC1 [Testosterone Cypionate] | nor did the medication alter the menstrual cycle | appreciable reduction | improved | noted in all patients | disappeared | More significant effects | nor did the medication alter the menstrual cycle | appreciable reduction | improved | noted in all patients | disappeared | More significant effects |  |  |  |  |  |  |  |
| C[C@]12CC[C@H]3[C@@H](CCC4=CC(=O)CC[C@@]43C)[C@@H]1CC[C@@H]2O [testosterone] |  |  |  |  |  |  |  |  |  |  |  |  | significantly improved | marked reduction | significantly improved | decrease; also recorded: reduced | decrease | decrease | eliminated; also recorded: reduced |
